Measured values: the supplement of paper PMC4862054

Assays:
Conditions in all cases: incubation time: 72 h
MCF-10A = assay: drug sensitivity score (DSS), CellTox Green (DSS (AUC-based score)); higher = stronger drug effect (viability inhibition or cytotoxicity); extreme values may be limits of the assay
Summary of the method: (§1)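 Using 20 µl of cell suspension per well, breast cancer cell lines were seeded into 384-well plates pre-loaded with compound at 5 concentrations in 10-fold steps across a compound-specific 10,000-fold range. Incubation lasted 72 h, after which CellTox Green fluorescence at 485/520 nm and then CellTiter-Glo luminescence, following 10 min at room temperature, were recorded. Each plate was normalised to 0.1 % DMSO and a positive kill control before the drug sensitivity score was derived from the area under the fitted dose-response curve.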

CAL-85-1 [1] = assay: as above
Summary of the method: as §1

BT-549 [2] = assay: as above
Summary of the method: as §1

HCC1599 [3] = assay: as above
Summary of the method: as §1

Hs578T [4] = assay: as above
Summary of the method: as §1

DU-4475 = assay: as above
Summary of the method: as §1

MFM-223 [5] = assay: as above
Summary of the method: as §1

HDQ-P1 [6] = assay: as above
Summary of the method: as §1

HCC1937 [7] = assay: as above
Summary of the method: as §1

CAL-51 [8] = assay: as above
Summary of the method: as §1

BT-474 = assay: as above
Summary of the method: as §1

MDA-MB-436 [9] = assay: as above
Summary of the method: as §1

MDA-MB-468 = assay: as above
Summary of the method: as §1

MDA-MB-453 = assay: as above
Summary of the method: as §1

HCC1143 [10] = assay: as above
Summary of the method: as §1

MDA-MB-231 = assay: as above
Summary of the method: as §1

CAL-85-1 [11] = assay: normalised response (% of control), CellTox Green; higher = less cell death (100 = DMSO, 0 = benzethonium chloride kill control)
Summary of the method: (§2)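 Values are normalised signals, each belonging to one concentration of the series. Breast cancer cells (20 µl suspension) were seeded into 384-well plates with compound at 5 concentrations in 10-fold steps over a compound-specific 10,000-fold range and incubated 72 h. Readouts were CellTox Green fluorescence (485/520 nm), then CellTiter-Glo luminescence after 10 min at room temperature, with each plate set to 0.1 % DMSO as 100 and a positive kill control as 0.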

BT-549 [12] = assay: as above
Summary of the method: as §2

HCC1599 [13] = assay: as above
Summary of the method: as §2

Hs578T [14] = assay: as above
Summary of the method: as §2

MFM-223 [15] = assay: as above
Summary of the method: as §2

HDQ-P1 [16] = assay: as above
Summary of the method: as §2

HCC1937 [17] = assay: as above
Summary of the method: as §2

CAL-51 [18] = assay: as above
Summary of the method: as §2

MDA-MB-436 [19] = assay: as above
Summary of the method: as §2

CAL-148 = assay: as above
Summary of the method: as §2

HCC1143 [20] = assay: as above
Summary of the method: as §2

Structure (SMILES)	drug sensitivity score (MCF-10A)	drug sensitivity score (CAL-85-1 [1])	drug sensitivity score (BT-549 [2])	drug sensitivity score (HCC1599 [3])	drug sensitivity score (Hs578T [4])	drug sensitivity score (DU-4475)	drug sensitivity score (MFM-223 [5])	drug sensitivity score (HDQ-P1 [6])	drug sensitivity score (HCC1937 [7])	drug sensitivity score (CAL-51 [8])	drug sensitivity score (BT-474)	drug sensitivity score (MDA-MB-436 [9])	drug sensitivity score (MDA-MB-468)	drug sensitivity score (MDA-MB-453)	drug sensitivity score (HCC1143 [10])	drug sensitivity score (MDA-MB-231)	normalised response (CAL-85-1 [11])	normalised response (BT-549 [12])	normalised response (HCC1599 [13])	normalised response (Hs578T [14])	normalised response (MFM-223 [15])	normalised response (HDQ-P1 [16])	normalised response (HCC1937 [17])	normalised response (CAL-51 [18])	normalised response (MDA-MB-436 [19])	normalised response (CAL-148)	normalised response (HCC1143 [20])
CN(C)CCOc1ccc(/C(=C(/CCCl)c2ccccc2)c2ccccc2)cc1 [Toremifene]	0	0	0	0	0	0	0	0	5.17	0	2.47	0	4.22	0	2.33	–	–	–	–	–	–	–	–	–	–	–	–
O=C(Nc1ccncc1)C(=O)c1cn(Cc2ccc(Cl)cc2)c2ccccc12 [Indibulin]	0	11.7	0	0	1.65	0	4.4	0	0	12.5	1.31	0	3.09	0	0	8.72	–	–	–	–	–	–	–	–	–	–	–
Cc1[nH]c2ccccc2c1CCNCc1ccc(/C=C/C(=O)NO)cc1 [Panobinostat]	1.6	17.3	0	4.47	18.5	6.99	6.53	3.86	14.2	18.2	14.6	0	10	4.41	6.53	19.9	–	–	–	–	–	–	–	–	–	–	–
COc1cc(O)c2c(c1)/C=C/C[C@H](O)[C@H](O)C(=O)/C=C\C[C@H](C)OC2=O [(5Z)-7-Oxozeaenol]	0	18.5	0	0	8.72	4.86	8.77	0	18.1	1.06	1.65	0	0	0	0	9.09	–	–	–	–	–	–	–	–	–	–	–
S=P(N1CC1)(N1CC1)N1CC1 [Thio-TEPA]	0	0	0	0	3.7	0	0	0	0	–	0	0	0	0	–	0	–	–	–	–	–	–	–	–	–	–	–
CCn1c(-c2nonc2N)nc2cnc(Oc3cccc(NC(=O)c4ccc(OCCN5CCOCC5)cc4)c3)cc21	0	0	0	0	0	0	0	0	0	11.2	0	0	0.303	0	–	4.85	–	–	–	–	–	–	–	–	–	–	–
O=C(Nc1cccnc1)N1CCC(Cc2cccc(Oc3ccc(C(F)(F)F)cn3)c2)CC1 [PF-3845]	0	0	0	0	0	0	0	–	0	0	0	0	0	0	0	0	–	–	–	–	–	–	–	–	–	–	–
CNC(=O)c1ccc(N2C(=S)N(c3ccc(C#N)c(C(F)(F)F)c3)C(=O)C23CCC3)cc1F [RD162]	0	0	0	0	0	0	0	0	0	0	0	0	0	0	–	0	–	–	–	–	–	–	–	–	–	–	–
COc1cc(OC2CCN(C)CC2)ccc1Nc1ncc2c(n1)n(C1CCCC1)c(=O)n2C [AZ 3146]	0	0	0	2.26	0	0	0	0	–	9.75	0	4.7	0	0	0	0	–	–	–	–	–	–	–	–	–	–	–
N#Cc1ccc(COC[C@H]2O[C@@H](n3c(NCc4ccc(Cl)c(Cl)c4)nc4c(N)ncnc43)[C@H](O)[C@@H]2O)cc1 (1000 nM)	–	–	–	–	–	–	–	–	–	–	–	–	–	–	–	–	97.6%	123%	102%	103%	104%	106%	90.4%	119%	96.5%	107%	115%
O=C(Nc1ccncc1)C(=O)c1cn(Cc2ccc(Cl)cc2)c2ccccc12 [Indibulin] (10000 nM)	–	–	–	–	–	–	–	–	–	–	–	–	–	–	–	–	16.7%	95.4%	105%	76.3%	72.9%	69.6%	99%	-2.59%	93.6%	65.3%	121%
COc1cc2ncnc(Nc3ccc(F)c(Cl)c3)c2cc1OCCCN1CCOCC1 [Gefitinib]	0	4.48	0	0	0	0	0	0	0	0	–	0	0	0	0	0.542	–	–	–	–	–	–	–	–	–	–	–
COCC[n+]1c2c(n(Cc3cnccn3)c1C)C(=O)c1ccccc1C2=O [YM155] (10000 nM)	–	–	–	–	–	–	–	–	–	–	–	–	–	–	–	–	-73.8%	8.26%	55.7%	18.1%	25.7%	25.1%	1.09%	8.9%	32.2%	2.48%	62.8%
NC(=O)c1ccc(I)c([N+](=O)[O-])c1 [Iniparib] (1000 nM)	–	–	–	–	–	–	–	–	–	–	–	–	–	–	–	–	101%	121%	89%	56.3%	96.7%	103%	63.7%	90.7%	93.9%	82.5%	101%
Cc1[nH]c2ccccc2c1CCNCc1ccc(/C=C/C(=O)NO)cc1 [Panobinostat] (1000 nM)	–	–	–	–	–	–	–	–	–	–	–	–	–	–	–	–	-26%	69.6%	53.1%	-12.8%	32.5%	39.2%	-17.6%	-9.56%	86.6%	4.38%	47.3%
Cc1ccc(NC(=O)c2ccc(CN3CCN(C)CC3)cc2)cc1Nc1nc(-c2cccnc2)cs1 [Masitinib]	0	0	0	0.597	1.55	0	0	0	0	0	0	–	1.39	0	0	5.53	–	–	–	–	–	–	–	–	–	–	–
COCC1(CO)C(=O)C2CCN1CC2 (centres undefined) [Prima-1 Met]	0	0	0	0	0	0	0	0	1.24	0	0	–	0	0	0	0	–	–	–	–	–	–	–	–	–	–	–
O=P1(N(CCCl)CCCl)NCCCO1 (centres undefined) [Cyclophosphamide]	0	0	0	0	–	0	0	0	0	0	0	0	–	0	0	0	–	–	–	–	–	–	–	–	–	–	–
COCC[n+]1c2c(n(Cc3cnccn3)c1C)C(=O)c1ccccc1C2=O [YM155] (1000 nM)	–	–	–	–	–	–	–	–	–	–	–	–	–	–	–	–	-94.7%	14.8%	51.1%	92.9%	55.1%	-26.1%	9.52%	4.79%	-1.05%	-7.66%	49.3%
O=C(/C=C/c1cccc(S(=O)(=O)Nc2ccccc2)c1)NO [Belinostat] (10000 nM)	–	–	–	–	–	–	–	–	–	–	–	–	–	–	–	–	-19.3%	103%	93.8%	37.3%	62.1%	76.1%	80.3%	-15.2%	112%	26.6%	79.7%
NC(=O)c1ccc(I)c([N+](=O)[O-])c1 [Iniparib]	1.4	0	0	0	–	0	0	1.99	0	0.811	0	0	0	0	1.54	0	–	–	–	–	–	–	–	–	–	–	–
COCC1(CO)C(=O)C2CCN1CC2 (centres undefined) [Prima-1 Met] (1000 nM)	–	–	–	–	–	–	–	–	–	–	–	–	–	–	–	–	102%	112%	109%	108%	89.9%	101%	120%	111%	71%	71.1%	114%
